Data as given in patent publication US20110072541A1, “MARKER FREE TRANSGENIC PLANTS ENGINEERING THE CHLOROPLAST GENOME WITHOUT THE USE OF ANTIBIOTIC SELECTION” (priority 2000, published 2011).
Entries after “also recorded” stand apart in the source; their conditions may differ. Where a name gives a salt, the structure may show the parent alone.

Columns and labels:
[1] = test system: untransformed N. tabacum Petit Havana leaf discs; assay: Toxicity of the selection agent to untransformed control leaf discs; assay type: cell-based, Nicotiana tabacum; conditions: for effect on leaf discs under selection: RMOP selection medium
Description: A. N. tabacum Petit Havana control in RMOP medium containing spectinomycin after 45 days. B. Bombarded leaf discs selected on spectinomycin in RMOP medium after 45 days. C. Spectinomycin resistant clones cultured again ([…]) to obtain homoplasmy. D. Petit Havana control in RMOP medium containing betaine aldehyde after 12 days of culture. E. Bombarded leaf discs selected on betaine aldehyde in RMOP medium after 12 days of culture; arrow indicates unbombarded leaf disc as control. Note that 23 shoots are formed on a disc selected on betain aldehyde against 1-2 shoots per disc on spectinomycin. F. Betaine aldehyde resistant clones cultured again (second round) to obtain homoplasmy. G. Selection on 10 mM betaine aldehyde of untransformed (1) and transgenic (2-4) leaf discs.
(§1) Leaves were placed abaxial side up on Whatman No. 1 filter papers laying on the RMOP medium (Daniell 1993) in standard petri plates (100×15 mm) for bombardment. Microprojectiles were coated with plasmid DNA (pLD-BADH) and bombardments were carried out with the biolistic device PDS 1000/He (Bio-Rad) as described by Daniell (1997). Following bombardment, petri plates were sealed with parafilm and incubated at 24° C. under 16 hour photoperiod. Two days after bombardment, leaves were chopped into small pieces of ˜5 mm^2 in size and placed on the selection medium (RMOP containing 500 μg/ml of spectinomycin dihydrochloride or 5-10 mM betaine aldehyde) with abaxial side touching the medium in deep (100×25 mm) petri plates. The regenerated resistant shoots were chopped into small pieces (˜2 mm^2) and subcloned into fresh deep petri plates containing the same selection medium. Resistant shoots from the second culture cycle were transferred to the rooting medium (MSO medium supplemented with IBA, 1 mg/liter containing appropriate selectable marker). Rooted plants were transferred to soil and grown at 26° C. under 16 hour photoperiod.
(§2) The entire process of regeneration, starting from bombardment until transfer to soil, takes about 3-6 months for spectinomycin selection and 2-3 months for betaine aldehyde selection. FIG. 3 and Table 1 show differences between the two selection processes. […] Leaf disks in FIG. 3 under betaine aldehyde selection appear partially green because they were photographed 12 days after the initiation of the selection process whereas the disc photographed on spectinomycin were 45 days after initiation of the selection process. In spite of the short period of selection one leaf disk was almost bleached (FIG. 3D) and all of them were killed after 30 days. Under 10 mM betaine aldehyde selection, control untransformed samples were killed (turned black, 3G-1) whereas transgenic leaves produced new shoots (FIG. 3G, 2-4).

tobacco seeds = assay: Seed germination on medium containing the selection agent; assay type: in vivo, Nicotiana tabacum
Description: Lack of pleiotropic effects. […] They grew normally, flowered and set seeds. […] […] This may be due to the presence of an active endogenous BADH or similar enzymatic activity in non-green plastids during germination.

resistant tobacco clones [2] = conditions: Eibl et al. 1999; Sidorov et al. 1999; cited from earlier work
resistant tobacco clones [3] = assay: PCR screening of resistant clones for chloroplast integration; parameters: species or system Nicotiana tabacum
Description: Integration of a foreign gene into the chloroplast genome was confirmed by PCR screening of chloroplast transformants (FIG. 4). Primers were designed to eliminate mutants, nuclear integration and to determine whether the integration of foreign genes had occurred in the chloroplast genome at the directed site by homologous recombination. The strategy to distinguish between nuclear and chloroplast transgenic plants was to land one primer (3P) on the native chloroplast genome adjacent to the point of integration and the second primer (3M) on the aadA gene (FIG. 1). This primer set generated 1.6 kb PCR product in chloroplast transformants (FIG. 4). Because this product cannot be obtained in nuclear transgenic plants, the possibility of nuclear integration can be eliminated. […] The rest of the resistant shoots may be either escapes or nuclear transformants. […] In contrast, nearly 60% of the spectinomycin resistant clones were mutants. Other labs have recently reported as high as 90% mutants among spectinomycin resistant clones (Eibl et al. 1999; Sidorov et al. 1999).

[4] = test system: Tobacco (Nicotiana tabacum var. Petit Havana) leaf discs; assay: Selection of bombarded tobacco leaf discs on RMOP selection medium (chloroplast transformation with pLD-BADH); assay type: cell-based; conditions: for time until resistant clones formed green shoots: after initiation of selection; for leaf discs responded / resistant shoots per responding leaf disk: bombarded leaf discs under selection; for average resistant shoots per plate: spectinomycin after 45 days; for resistant shoots regenerated overall: ten bombardments (spectinomycin), six bombardments (betaine aldehyde)
Description: Expression cassettes of the chloroplast integration vector contain the chimeric aadA gene and the BADH gene driven by the constitutive 16S rRNA promoter and regulated by the 3′ untranslated region of the plastid psbA gene. The chimeric aadA gene encoding aminoglycoside 3′ adenyltransferase confers spectinomycin resistance in chloroplasts enabling selection of the transformants on spectinomycin dihydrochloride. On the other hand, BADH converts the toxic betaine aldehyde in cells to glycine betaine. When present, this pathway is compartmentalized within chloroplasts (Nuccio, et al. 1999). To facilitate translation of the dicistronic mRNA, independent Shine-Dalgarno (SD) sequences were provided to the aadA and BADH genes upstream of the initiation codons. In order to accurately compare transformation efficiency of both selectable markers under identical bombardment and transformation conditions, aadA and BADH genes were inserted into the same vector, at the same site. Bombarded leaves were treated in identical manner except the addition of selection reagent.
Tobacco (Nicotiana tabacum var. Petit Havana) was grown aseptically by germination of seeds in MSO medium. This medium contains MS salts (4.3 g/liter), B5 vitamin mixture (myoinositol, 100 mg/liter; thiamine-HCl, 10 mg/liter; nicotinic acid, 1 mg/liter; pyridoxine-HCl, 1 mg/liter), sucrose (30 g/liter) and phytagar (6 g/liter) at pH 5.8. Fully expanded, dark green leaves of about two month old plants were used for bombardment.
as §1, §2
When the leaf discs were selected for spectinomycin resistance, only 15% of the discs responded and an average of one resistant shoot per plate was observed after 45 days. From each callus, all resistant shoots are considered to represent an individual clone. Under betaine aldehyde selection 80% of the discs responded and an average of 25 resistant shoots per plate was observed. […]

SMILES	effect on leaf discs under selection [1]	germination of seeds from chloroplast transgenic plants (tobacco seeds; MS medium, 500 μg/ml spectinomycin)	mutants among resistant clones, other labs (resistant tobacco clones [2])	mutants among resistant clones (resistant tobacco clones [3]; applicant's clones)	entire process of regeneration, bombardment until transfer to soil [4]	time until resistant clones formed green shoots [4]	leaf discs responded [4]	average resistant shoots per plate [4]	resistant shoots regenerated overall [4]	effect on untransformed leaf discs ([1]; 10 mM betaine aldehyde)	time after which all control leaf disks were killed ([1]; Petit Havana control in RMOP with betaine aldehyde)	germination of untransformed seeds (tobacco seeds; betaine aldehyde 10-15 mM)	resistant clones with foreign genes integrated into the chloroplast genome (PCR) (resistant tobacco clones [3]; after the first culture cycle)	efficiency of transformation relative to spectinomycin selection ([4]; betaine aldehyde vs spectinomycin selection)	resistant shoots per responding leaf disk [4]	resistant shoots per responding leaf disk ([4]; listed as betain aldehyde)
CN[C@@H]1[C@H](O)[C@H](NC)[C@H]2O[C@@]3(O)C(=O)C[C@@H](C)O[C@H]3O[C@@H]2[C@H]1O [Spectinomycin, spectinomycin dihydrochloride]	leaf discs continued to grow but pigments were bleached	germinated and grew normally	≤ 90%	~60%	3-6 months	about 45 days	15%	one	10	–	–	–	–	–	–	–
C[N+](C)(C)CC=O [betaine aldehyde]	growth of the leaf discs was completely inhibited and photosynthetic pigments were degraded	–	–	–	2-3 months	≤ 12 days	80%	25	more than 150	death of untransformed leaf disc; also recorded: killed	30 days	germinated	11 out of 15	25 fold	≤ 23	23
